This passage reports IC50 results from patent publication US11802127B2, “3,4-dihydro-2,7-naphthyridine-1,6(2H,7H)-diones as MEK inhibitors” (Pfizer Inc., priority 2021, dated 2023).

Each structure is given as a SMILES string. pIC50: −log10 of the molar value. Where a name gives a salt, the structure may show the parent alone.

The test relates to ERK1/2(Thr202/Tyr204) phosphorylation (MEK-dependent) in A375 cells. The test can be described thus: Cellular Phospho-p44/42 MAPK (Erk1/2) (Thr202/Tyr204) Assay. In kind it is cell-based. The conditions noted are these: Homo sapiens, A-375, 1-hour incubation, pERK1/2 (Thr202/Tyr204) In-Cell Western normalized to GAPDH. On the procedure:
Inhibition of ERK1/2(Thr202/Tyr204) phosphorylation was determined by the following cellular assay, which comprises incubating cells with a compound for 1 hour and quantifying pERK signal by In-Cell Western on fixed cells and normalizing to GAPDH signal. A375 cells were obtained from the ATCC and grown in DMEM supplemented with 10% fetal bovine serum, penicillin/streptomycin, Glutamax®, non-essential amino acids, and sodium pyruvate. Cells were plated in 96-well plates at 30,000 cells/well and allowed to attach overnight at 37° C./5% CO2. Cells were treated with compounds prepared as a 10-point, 1:3 dilution series (range: 20 μM-0.05 nM; maximum concentration varied from 20 μM-1 μM), with a final DMSO concentration of 0.5%. Control wells contained either 0.5% DMSO alone (no inhibition control) or 1 μM of a potent control compound (complete inhibition control). After a 1-hour incubation, cells were fixed in 3.7% formaldehyde in dPBS (Dulbecco's phosphate-buffered saline) at room temperature for 20 minutes. Cells were then washed with dPBS and permeabilized in 100% MeOH at room temperature for 10 minutes. Following permeabilization, cells were washed in dPBS and incubated in LI-COR Blocking Buffer (LI-COR Biosciences, Cat #927-40000) for 1 hour or longer. Plates were then incubated with an antibody specific for the MEK-dependent ERK1/2 phosphorylation sites, threonine 202 and tyrosine 204 (Cell Signaling Technologies; Cat #9101), downstream of MEK in the MAP kinase signal transduction pathway, as well as GAPDH (Millipore; Cat #MAB374). pErk1/2 (Thr202/Tyr204) antibody was diluted in LI-COR blocking buffer containing 0.05% Tween-20 at 1:250; GAPDH was diluted at 1:2,500. The plates were incubated overnight at 4° C. After washing with PBS/0.05% Tween-20, the cells were incubated with fluorescently-labeled secondary antibodies (Anti-rabbit-Alexa Flour680, Invitrogen Cat #A21109; Anti-mouse-IRDye800CW, LI-COR Biosciences Cat #926-32210, both at 1:1000 dilution) for 1 hour. Cells were then washed, as above, and analyzed for fluorescence at both 680 and 800 nm wavelengths using the Odyssey CLx Infrared Imaging System (LI-COR Biosciences). Phosphorylated Erk1/2 (Thr202/Tyr204) signal was normalized to GAPDH signal for each well.
A word on the pIC50: it is the IC50 on a negative log10 scale, so that one unit is a factor of ten. A higher pIC50 goes with a low IC50. `Cn1c(Nc2ccc(Br)cc2F)c2c(cc1=O)CCN(OCC1CC1)C2=O` [Example 2, 8-((4-bromo-2-fluorophenyl)amino)-2-(cyclopropylmethoxy)-7-methyl-3,4-dihydro-2,7-naphthyridine-1,6(2H,7H)-dione]: the negative-log IC50 (pIC50) was 5.99.
`Cn1c(Nc2ccc(Br)c(F)c2F)c2c(cc1=O)CCN(OCCO)C2=O` [Example 11, 8-((4-bromo-2,3-difluorophenyl)amino)-2-(2-hydroxyethoxy)-7-methyl-3,4-dihydro-2,7-naphthyridine-1,6(2H,7H)-dione] showed a pIC50 of 6.70.
On to `Cn1c(Nc2ccc(Br)c(Cl)c2F)c2c(cc1=O)CCN(OCCO)C2=O` [Example 12, 8-((4-bromo-3-chloro-2-fluorophenyl)amino)-2-(2-hydroxyethoxy)-7-methyl-3,4-dihydro-2,7-naphthyridine-1,6(2H,7H)-dione], for which the negative-log IC50 (pIC50) is 5.97. This pIC50 lies 0.73 log units lower than the previous one.
For `Cn1c(Nc2ccc(C(F)(F)F)cc2F)c2c(cc1=O)CCN(OCCO)C2=O` [Example 13, 8-((2-fluoro-4-(trifluoromethyl)phenyl)amino)-2-(2-hydroxyethoxy)-7-methyl-3,4-dihydro-2,7-naphthyridine-1,6(2H,7H)-dione] the value was 6.75.
Then `COc1ccc(Nc2c3c(cc(=O)n2C)CCN(OCCO)C3=O)c(F)c1` [Example 16, 8-((2-fluoro-4-methoxyphenyl)amino)-2-(2-hydroxyethoxy)-7-methyl-3,4-dihydro-2,7-naphthyridine-1,6(2H,7H)-dione], with 6.56; and `Cn1c(Nc2ccc(SC(F)(F)F)cc2F)c2c(cc1=O)CCN(OCCO)C2=O` [Example 17, 8-((2-fluoro-4-((trifluoromethyl)thio)phenyl)amino)-2-(2-hydroxyethoxy)-7-methyl-3,4-dihydro-2,7-naphthyridine-1,6(2H,7H)-dione], with 6.59; and `CC(=O)c1ccc(Nc2c3c(cc(=O)n2C)CCN(OCCO)C3=O)c(F)c1` [Example 20, 8-((4-acetyl-2-fluorophenyl)amino)-2-(2-hydroxyethoxy)-7-methyl-3,4-dihydro-2,7-naphthyridine-1,6(2H,7H)-dione], with 6.20.
For `Cn1c(Nc2ccc(OC(F)(F)F)cc2F)c2c(cc1=O)CCN(OCCO)C2=O` [Example 24, 8-((2-fluoro-4-(trifluoromethoxy)phenyl)amino)-2-(2-hydroxyethoxy)-7-methyl-3,4-dihydro-2,7-naphthyridine-1,6(2H,7H)-dione] the value was 6.33.
For `Cn1c(Nc2ccc(I)cc2F)c2c(cc1=O)CCN(OC(C)(C)C)C2=O` [Example 30, 2-(tert-butoxy)-8-((2-fluoro-4-iodophenyl)amino)-7-methyl-3,4-dihydro-2,7-naphthyridine-1,6(2H,7H)-dione], the pIC50 was 6.38.
Molecule `C[C@@H](O)CON1CCc2cc(=O)n(C)c(Nc3ccc(Br)cc3F)c2C1=O` [Example 34, (R)-8-((4-bromo-2-fluorophenyl)amino)-2-(2-hydroxypropoxy)-7-methyl-3,4-dihydro-2,7-naphthyridine-1,6(2H,7H)-dione] gave a pIC50 of 6.68.
For `Cc1c2c(c(Nc3ccc(Br)cc3F)n(C)c1=O)C(=O)N(OC[C@@H](C)O)CC2` [Example 35, (R)-8-((4-bromo-2-fluorophenyl)amino)-2-(2-hydroxypropoxy)-5,7-dimethyl-3,4-dihydro-2,7-naphthyridine-1,6(2H,7H)-dione] the value was 6.64; for `Cn1c(Nc2ccccc2F)c2c(c(I)c1=O)CCN(OCCO)C2=O` [Example 41, 8-((2-fluorophenyl)amino)-2-(2-hydroxyethoxy)-5-iodo-7-methyl-3,4-dihydro-2,7-naphthyridine-1,6(2H,7H)-dione], 7.13; for `Cc1c2c(c(Nc3ccccc3F)n(C)c1=O)C(=O)N(OCCO)CC2Br` (stereo not drawn) [Example 43, 4-bromo-8-((2-fluorophenyl)amino)-2-(2-hydroxyethoxy)-5,7-dimethyl-3,4-dihydro-2,7-naphthyridine-1,6(2H,7H)-dione], 6.81.
For `CCCc1ccc(Nc2c3c(cc(=O)n2C)CCNC3=O)c(F)c1` [Example 54, 8-((2-fluoro-4-propylphenyl)amino)-7-methyl-3,4-dihydro-2,7-naphthyridine-1,6(2H,7H)-dione] the value was 6.78; for `Cc1c2c(c(Nc3ccc(OC(F)F)cc3F)n(C)c1=O)C(=O)NCC2` [Example 58, 8-((4-(difluoromethoxy)-2-fluorophenyl)amino)-5,7-dimethyl-3,4-dihydro-2,7-naphthyrdine-1,6(2H,7H)-dione], 7.35.
Then `Cn1c(Nc2ccc(Br)cc2Cl)c2c(cc1=O)CCNC2=O` [Example 59, 8-((4-bromo-2-chlorophenyl)amino)-7-methyl-3,4-dihydro-2,7-naphthyridine-1,6(2H,7H)-dione], with 7.14.
As to `Cn1c(Nc2ccc(Br)cc2F)c2c(cc1=O)CCN(CCO)C2=O` [Example 60, 8-((4-bromo-2-fluorophenyl)amino)-2-(2-hydroxyethyl)-7-methyl-3,4-dihydro-2,7-naphthyridine-1,6(2H,7H)-dione trifluoroacetate], the negative-log IC50 (pIC50) is 6.29.
Then `CSc1ccc(Nc2c3c(cc(=O)n2C)CCN(OCC(F)F)C3=O)c(F)c1` [Example 63, 2-(2,2-difluoroethoxy)-8-((2-fluoro-4-(methylthio)phenyl)amino)-7-methyl-3,4-dihydro-2,7-naphthyridine-1,6(2H,7H)-dione], with 6.94.
